Experimental data published in patent US7196063B1, “Peptides and pharmaceutical compositions comprising same” (NST NeuroSurvival Technologies Ltd., priority 1999, dated 2007).
“Also recorded” adds a separate entry of the source. Where two headings read alike, the source gives them in different places.

Columns and labels:
HUVEC cells [1] = assay: Binding to endothelial HUVEC cells by FACS analysis; type: cell-based, Human; details: 250 μM
Experimental: Binding detection was done using flow cytometric analysis to populations of HUVEC cells.
HUVEC (CC-2517, obtained from Clonetics, Walkersville, Md.) were grown on tissue culture flasks in Endothelial cell medium (EGM-2 Bulletkit, CC 3162, Clonetics). Mid-confluent cultures were harvested using Trypsine/EDTA solution (CC-5012, Clonetics). The cells were rinsed twice with TBS containing 2% BSA and kept on ice. Samples of 10^6 cells were tested for binding.
Cells were washed in 1 ml of TBS-BSA and centrifuged as before and then suspended in 100 μl of TBS-BSA containing streptavidin conjugated to fluorescein (FITC) for detection of the bound biotinylated compound. […] Thereafter, 400 μl of TBS-BSA were added and cells were entrifuged and re-suspended in 400 μl of TBS and taken for FACS analysis.

HUVEC cells [2] = assay: Cell-ELISA: binding of anti β2GPI antibodies to HUVEC cells; type: cell-based, Human
Experimental: Human β2GPI is a plasma phospholipid binding protein that is required for the binding of autoantibodies in sera from patients with APS to cardiolipin (McNeil H P et al., 1990 Proc. Natl. Acad. Sci. 87, 4120–4124). […] Anti β2GPI antibodies are present in sera of APS patients. […] For cell-ELISA tests, HUVEC cells (at 40,000/well), were plated on 96 well tissue culture plates (Nunc) in 200 μl of the culture medium, and allowed to grow for 18–22 hours. Following 2 washes with Hepes buffer (10 mM Hepes pH 8, 140 mM NaCl) and 5 min incubation with the culture medium, the wells were incubated for 3 hr with 10% of normal plasma in PBS (as a source of β2 GPI protein), supplemented with 1/500 of goat anti-human Apolipoprotein-H (β2 GPI) (Affinity biologicals, PA). Parallel control wells were incubated with 10% of normal plasma from Ilex. Serial dilutions of NST500 compounds were prepared in plasma/PBS. Washes and development were as described for anti CL ELISA.
As presented in FIG. 5B, in the presence of plasma and absence of NST500, HUVEC cells supported binding of anti β2GPI to their surface. However, displacement of anti β2GPI by NST500 compounds in this system occurred in a concentration dependent manner, similar to the results obtained with CL.

HUVEC cells [3] = assay: Thrombin generation by HUVEC cells; type: cell-based, Human
Source text: In vivo, vascular endothelial cells are known to catalyze the formation of thrombin, due to expression of PS on their plasma membrane, at which pro-coagulant complexes are assembled (Van Hardee W L et al., 1994, Biochem J. 302, 305–312). Endothelial cells (EC) play an active role in determining the pro-coagulant/anti-coagulant balance in the vascular system (Gimborne M A et al., 1995, Ann. N. Y. Acad Sci 748, 122–132). Perturbed endothelial cells dramatically increase their pro-coagulant state. […] (FIG. 4D). When HUVEC cells (1.5×10^5) were incubated with the S-2366 substrate, thrombin generation was evident after a lag time of 12.5 minutes, which reflects the time required to assemble a functional complex on the HUVEC surface.
The effect of NST516 compound on HUVEC mediated-thrombin generation was studied.

apoptotic HeLa cells [4] = details: 250 μM; FACS
Experimental: Detection of binding to apoptotic HeLa cells was performed according to the following procedure: Cells were plated on tissue culture plates at a density of 5×10^6 cells/10 cm dish, and grown in their normal medium at 37° C. for 18 hr. The medium was replaced with a medium containing 2% FCS and 500 μM of dopamine. Eighteen hours later, floating cells that were identified as advanced apoptotic cells were collected and transferred to a 50 ml tube. To evaluate the level of apoptosis in the cultures, aliquots of 10^5 cells from the cultures were plated on 48 wells plate and stained with Hoechst 33342 dye (Molecular Probes) at a concentration of 1 mg/ml for 20 min (as described above). Non-treated cells served as control. For collecting the non-treated cells, the medium of the culture was aspirated and discarded, the cells were rinsed with growing medium and 2 ml of medium were added to the culture dish. The cells were detached from the culture dish using a cell scraper and separated to single cells by passage through a syringe with a 18G needle.
The reactions were incubated at room temperature for 40 minutes and then 400 μl of TBS was added and cells were collected by centrifugation at 3000×g for 3 minutes. Cells were washed in 1 ml of TBS and centrifuged as before and detecting of the bound compound was performed using 100 μl of TBS containing streptavidin conjugated to fluorescein (FITC) (016-090-084 from Jackson ImmunoResearch lab. Inc.). Incubation was for 15 minutes at room temperature in the dark. Thereafter, 400 μl of TBS was added and cells were centrifuged and washed again with 1 ml of TBS as before, re-suspended in 400 μl of TBS and then taken for FACS analysis. The FACS analysis was performed on Beckton-Dickinson cell sorter, using lysis II software. Excitation was at 488 nm and emission for FITC detection was at 535 nm and for PI detection at 585 nm.

apoptotic HeLa cells [5] = assay: Modified APTT test with apoptotic HeLa cells as pro-coagulant surface; type: cell-based
Experimental: Apoptotic and control HeLa cells were prepared as described for the FACS analysis. Equal numbers of apoptotic or control non-treated cells (5×10^4) in a volume of […], were mixed with 100 μl of normal plasma, incubated for 1 min at 37° C. in a bath and then calcified by addition of 100 μl of 25 mM CaCl2, and clotting time was measured. Inhibition of the pro-coagulant activity of the apoptotic cells by NST500 compounds was tested following pre-incubation of apoptotic cells for 20 min. at room temperature with increased concentrations of the different NST 500 compounds.
The results can be seen in FIG. 4B.

cardiolipin = system: cardiolipin
Source text: The antiphospholipid antibody syndrom (APS) is a thrombophilic condition, characterized by a panel of antibodies that recognize anionic phospholipid-protein cofactor complexes. The antiphospholipid antibodies lupus anticoagulant and anticardiolipin, (present in high concentrations in SLE patients), are associated with several medical disorders including artherial and venous thrombosis, and recurrent pregnancy loss (Rand J H et al., 1998, Blood. 92, 1652–1660). […] Noncellular negatively charged phospholipid coated surface (cardiolipin) were chosen as a target for binding.
CL, (Diphosphatidylglycerol, c-1649, Sigma), prepared at 50 μg/ml in ethanol, was added to a 96 well plate (100 μl/well) using Immunolon 4 plates (Dynatech, Chantilly, Va.) and incubated for 16–20 hr for evaporation of ethanol. As control, wells were coated with ethanol only. The coated plates were washed 3 times with 100 μl of blocking buffer (PBS containing 0.3% gelatin (Sigma) and 1 mM EDTA) to block non specific binding. A 5 min incubation time was used between each wash. Normal plasma (Ilex, Italy, 84670-11) and plasma derived from SLE patients (either from Gradipore, Australia, LAHP-1, or from Biopool, Ventura, Calif.) were prepared according to the producer's instruction. The plasma was diluted 1/10 in the blocking buffer and was added to the CL and ethanol coated wells. […] Following 3 hr incubation, the plates were washed twice with PBS/BSA buffer (0.4% bovine serum albumine (BSA) in PBS). For detection of anti cardiolipin binding property of the tested plasma, the plates were incubated with a 1/10000 dilution of Peroxidase-conjugated affinity purified Goat anti-human IgG (Jackson Immunoresearch lab.) in PBS/BSA buffer for 1 hour. The plates were then washed 3 times with PBS/BSA buffer, and color reaction was developed by incubation with 100 ul of 0-phenylenedi-amine (OPD) dihydrochloride (Sigma p-7288) at a concentration of 0.4 mg/ml in 0.05 M phosphate citrate buffer, pH 5.0 supplemented with 4 ul of 30% hydrogen peroxide (Aldrich) for 10 ml mixture. To detect the level of NST500 compounds that were bound to CL, parallel wells were incubated with streptavidin conugated to OPD (SA-OPD, Jackson Immunoresearch lab.), that specifically recognize the biotinylated NST 500 compounds. The resulting colour changes were recorded at 405 nm using a Bio Tek Elx800 Eliza reader.

[6] = within 5 minutes; rabbits; intravenous injection; cited from earlier work
arterial thrombosis = details: intravenous administration; carotid artery injury model; cited from earlier work
apoptotic hepatocytes = type: in vivo, mice; details: data not shown
Experimental: Massive hepatic apoptosis can be induced within 1–2 hr in mice following intravenous injection of anti-Fas antibody (Ogasawara J. et al., 1993, Nature, 364, 806–809). […] Five-weeks-old male BALB/c mice were injected intravenously with 10 μg/animal of purified hamster anti-Fas mAb (Jo2, PharMingen, San Diego, Calif.) using the model described by Ogasawara et. al. (Nature, 1993, 364, 806–809). […] Injections were performed at different time intervals between 5 min–2 hr after antibody treatment. […] All animals were killed 2 hr after administration of antibody followed by organ removal. Heart, lung and liver were collected. Liver were sectioned transversely across the mid-portion of each lobe; organs were fixed in phosphate-buffered formalin for histological and immunohisto-chemical analyses.
Formalin fixed paraffin-embedded tissues were sectioned (5 μm) for staining with Hematoxylin/Eosin or other techniques. Endogenous peroxidase activity was blocked by incubation with 3% H2O2.
After washing with PBS, staining was developed with 3,3-diaminobenzidine tetrahydrochloride (DAB), and counterstained with Hematoxylin.
Liver sections from different lobes were used for detection of stained apoptotic cells compared to normal cells. Using light microscopy (×400), twenty fields of stained cells were evaluated. A ratio between the number of stained apoptotic hepatocytes versus stained normal hepatocytes in the field was defined. The stained cell's score (%) corresponds to the mean of the values for the twenty evaluated fields.
The percentage of apoptotic cells in the fields was estimated by evaluating parallel sections stained with Hematoxylin/Eosin. Analysis was performed blindly, since the pathologist performing the histological evaluation was unaware of the assignment of mice to the treatment or control group.
To quantitate the microscopic examination of the pharmacokinetics studies, the number of stained cells from 20 microscopic fields was counted.

| Substance | fraction of HUVEC cells labeled (HUVEC cells [1]) [%] | higher FITC labeled HUVEC cells as compared to NST513 (HUVEC cells [1]) [%] | increase in labeled HUVEC cells as compared to background of control cells without compound (HUVEC cells [1]) [fold] | blocking of binding of anti β2 GPI antibodies to HUVEC cells (HUVEC cells [2]) | inhibiting activity relative to NST513 (HUVEC cells [2]) | delay in thrombin generation (HUVEC cells [3]) [min] | potency in inhibiting thrombin generation compared to NST513 (HUVEC cells [3]) | thrombin generation by HUVEC cells, dose response (HUVEC cells [3]) | binding to apoptotic HeLa cells relative to NST513 (apoptotic HeLa cells [4]) [fold] | effect on clotting time of apoptotic cells (apoptotic HeLa cells [5]; 2.5–2.2 μM) | increase of clotting time of apoptotic cells (factor) (apoptotic HeLa cells [5]; 2.5–2.2 μM) [times] | clotting time of apoptotic cells (apoptotic HeLa cells [5]; apoptotic cells alone 50 seconds, control cells 80 seconds) [s] | potency relative to NST513 in inhibiting binding of SLE plasma to CL (cardiolipin) [times] | displacement of plasma derived from SLE patients from cardiolipin (cardiolipin; 1 μM) | lowering of binding of plasma derived from SLE patients to CL (factor) (cardiolipin; 1 μM) | displacement of plasma derived from SLE patients from cardiolipin (cardiolipin; 10 μM) | inhibition of binding of plasma derived from SLE patients to cardiolipin, dose response (cardiolipin; 1–10 μM) | clearance [6] [%] | inhibition of arterial thrombosis (arterial thrombosis) | staining of apoptotic cells, exogenously added (apoptotic hepatocytes) |
| --- | --- | --- | --- | --- | --- | --- | --- | --- | --- | --- | --- | --- | --- | --- | --- | --- | --- | --- | --- | --- |
| Myristate-KKVSFFCKNKEKKC-K(SEQ ID NO:2) (biotin) [NST516] | 83 | 70 | 8 | dramatic and significant ability to block binding | two times better | 5 | more potent compound in inhibiting thrombin generation | dose dependence inhibition of thrombin generation | 3.5 | marked and dose dependent inhibition of clotting time; also recorded: dose-dependent effect | 4.5 | 225 | 10 | marked displacement | 2 | almost complete displacement | marked displacement of IgG |  |  |  |
| Annexin V: 320 amino acid protein of the annexin family with Ca2+-dependent binding to anionic phospholipid membranes |  |  |  |  |  |  |  |  |  |  |  |  |  |  |  |  |  | 90 | effectively achieved | same pattern of staining |
